Data from PMC8597046, “Use of Mixture Dosing and Nonlinear Mixed Effect Modeling of Eight Environmental Contaminants in Rabbits to Improve Extrapolation Value of Toxicokinetic Data” (Environmental Health Perspectives, 2021).

Experiments:
[1] = TK assay, intravenous mixture dosing: serum concentrations and noncompartmental analysis (sparse data); settings: for Serum concentration: IV
Description: The experiment was carried out on thirty 10-wk old female New Zealand white rabbits (INRA 1777 line) weighing 2.37±0.14kg . […] Blood samples were taken at the designated time points post IV and oral administration: 15 min, 30 min, 1 h, 2 h, 4 h, 8 h, 12 h, 24 h, 3 d, 7 d, and 28 d from groups of 3 or 6 rabbits at each sampling time. Each rabbit was sampled 3 times and 3 rabbits were sampled at each sampling time, except at 30 min post administration, when 6 samples were collected to provide a sufficient blood volume for assaying the compounds. The doses and assay time points were selected to allow the calculation of TK parameters (Table 1) based on preliminary TK data. Residual concentrations of the compounds, and their possible evolution over time, were determined by sampling six entirely untreated rabbits during the TK study on the day of drug administrations, then 14 d and 28 d later.
The volume administered was adjusted to the animal’s body weight (BW) recorded the day before.
Intravenous administrations were performed via an indwelling catheter (22G Terumo, 0.9×25mm ) just after its insertion into an ear vein. […] For oral administrations, the mixture of all compounds ( 4mL/kg ) was deposited directly in the mouth of rabbits using a catheter (22G BD Insyte 22G, 0.9×25mm ). Prior to the study, the rabbits had been trained to gradually swallow water and then corn oil.
Blood samples were collected from the auricular artery using a 20 G needle ( 0.9×25mm ) and a dry tube. The first two blood samples were 8–10mL in volume, whereas a large volume (about 20mL ) was obtained antemortem immediately after electrical stunning (95LX rabbit stunner; Burdis), followed by exsanguination.
Serum concentration-time profiles of the different compounds were first analyzed using a noncompartmental approach (NCA) involving a sparse data option. Sparse data methodology consists of calculating TK parameters based on the mean profile of all the subjects in the dataset and is appropriate when a rich data series cannot be obtained, as in the present experiment ([FDA 1999]). The area under the concentration time curve ( AUC0−tlast ) and the area under the first moment curve ( AUMC0−tlast ) from dosing time ( t=0 ) to the time of the last measurable concentration were calculated using the linear trapezoidal rule after IV and oral dosing. The area under the serum concentration time curve from dosing time to infinity ( AUC0−inf ) was obtained by adding to AUC0−tlast the area extrapolated from the time of the last measurable concentration to infinity by dividing the last quantifiable serum concentration by the slope of the terminal phase ( λZ ), as estimated by linear regression using the best fit option of Phoenix®.
The clearance (CL) and apparent clearance (CL_F) were respectively estimated after IV and oral administrations by dividing the administered dose by the AUC0−inf calculated for each analyte.
The terminal half-life (HL) was estimated with Equation 1: (1) HL=0.69315/λZ where λz is the slope of the terminal phase.
The mean residence time (MRT) was estimated using Equation 3: (3) MRT=AUMCiv0−tlast /AUCiv0−tlast , where AUCMiv0−tlast and AUCiv0−tlast are the values of AUMC0−tlast and AUC0−tlast obtained after IV dosing.
The steady-state volume of distribution ( VSS ) was estimated using Equation 4: (4) VSS=CL×MRT, with CL and MRT as defined above.

[2] = Estimation of loading and daily maintenance doses and NLME model simulations; parameters: species or system female rabbits; settings: oral; for Computed maintenance dose: daily; for Computed maintenance dose / Computed loading dose: scaled to the targeted CSS of Table 6; for Daily maintenance dose: to maintain serum concentration of 1 ng/mL, daily CL×Css/F; for Daily maintenance dose / Loading dose: DEHP dose for MEHP in serum; for Loading dose: to rapidly attain serum concentration of 1 ng/mL, Vss×Css/F
Description: The ultimate goal of this TK investigation was to compute a dosage regimen that allowed targeted steady-state serum concentrations to be attained rapidly for a planned TK/TD trial on the reprotoxic effect of a mixture of environmental contaminants in female rabbits. […] With that in mind, the loading and the daily maintenance doses of each compound were evaluated using Equations 12 and 13, respectively.
This risk was also the reason why the NLME model was employed to simulate the time development of the amounts of compounds in the central and peripheral compartments following administration of the daily maintenance dose of each compound over the same duration.
The loading and maintenance doses computed to ensure a nominal CSS of 1 ng/mL were scaled to determine the doses to be administrated by oral route to female rabbits to maintain the targeted CSS .

[3] = Chronic exposure: daily oral mixture for 17 wk, steady-state serum concentrations
Description: The objective of this preliminary experiment was to check the ability of our approach to determine the loading and maintenance doses of the eight compounds to be administered simultaneously by oral route to reproduce in female rabbits targeted serum concentrations. The experiment was carried out on thirty-two 2-wk old female New Zealand white rabbits (INRA 1777 line) randomly allocated to a treatment and control groups of 16 rabbits weighing 309±45g and 298±62g , respectively. The treated rabbits were orally administrated a mixture of the eight compounds at a dosage corresponding to the sum of the loading and daily maintenance doses followed by daily administrations of the maintenance dose for 17 wk (see the “Estimation of the doses” section). The control group was orally administrated the vehicle for the same duration.
The volume of the maintenance dosing solution ( 1mL/kg ) was weekly adjusted to the mean BW estimated from the known pattern of growth of the INRA 1777 rabbit line. Oral dosing and antemortem blood sampling were performed as previously described.
Blood samples were left to clot for about 20–30 min at ambient temperature and centrifuged for 20 min at 3,000×g at 25°C. The separated serum was stored in glass tubes at −20°C until assayed.

[4] = female, New Zealand white (INRA 1777 line), rabbit, in vivo, iv

Brc1ccc(Oc2ccc(Br)cc2Br)c(Br)c1 [BDE-47, 2,2′,4,4′-tetrabromodiphenyl ether]
AUC(0-inf) [1, 4]: 42.2 µM·h | Cmax [1, 4]: 1820 nM | MRT [1, 4]: 86.9 h | clearance [1, 4]: 3.83 mL/min/kg | half-life [1, 4]: 162 h | Vd ([1]; female, New Zealand white (INRA 1777 line), rabbit, in vivo, iv, VSS, IV mixture dosing, NCA, n=12): 20.3 L/kg | Vd ([1]; female, New Zealand white (INRA 1777 line), rabbit, in vivo, iv, VZ, IV mixture dosing, NCA, n=12): 54.8 L/kg | concentration at 24.03 h ([1]; female, New Zealand white, rabbit, in vivo, iv, Serum concentration, rabbit 1, 24.03 h): 120 nM | concentration at 24 h ([1]; female, New Zealand white, rabbit, in vivo, iv, Serum concentration, rabbit 2, […]): 140 nM | concentration at 24 h ([1]; female, New Zealand white, rabbit, in vivo, iv, Serum concentration, rabbit 3, […]): 130 nM | concentration at 72 h ([1]; female, New Zealand white, rabbit, in vivo, iv, Serum concentration, rabbit 4, 72.00 h): 56 nM | concentration at 72.03 h ([1]; female, New Zealand white, rabbit, in vivo, iv, Serum concentration, rabbit 5, 72.03 h): 63 nM | concentration at 71.97 h ([1]; female, New Zealand white, rabbit, in vivo, iv, Serum concentration, rabbit 6, 71.97 h): 42 nM | concentration at 168 h ([1]; female, New Zealand white, rabbit, in vivo, iv, Serum concentration, rabbit 7, 168.00 h): 31 nM | concentration at 167.92 h ([1]; female, New Zealand white, rabbit, in vivo, iv, Serum concentration, rabbit 8, 167.92 h): 25 nM | concentration at 168 h ([1]; female, New Zealand white, rabbit, in vivo, iv, Serum concentration, rabbit 9, 168.00 h): 37 nM | concentration at 0.67 h ([1]; female, New Zealand white, rabbit, in vivo, iv, Serum concentration, rabbit 10, 0.67 h): 1990 nM | concentration at 671.96 h ([1]; female, New Zealand white, rabbit, in vivo, iv, Serum concentration, rabbit 10, 671.96 h): 3.9 nM | concentration at 0.77 h ([1]; female, New Zealand white, rabbit, in vivo, iv, Serum concentration, rabbit 11, 0.77 h): 1770 nM | concentration at 672 h ([1]; female, New Zealand white, rabbit, in vivo, iv, Serum concentration, rabbit 11, 672.00 h): 5.3 nM | concentration at 0.6 h ([1]; female, New Zealand white, rabbit, in vivo, iv, Serum concentration, rabbit 12, 0.60 h): 1820 nM | concentration at 671.83 h ([1]; female, New Zealand white, rabbit, in vivo, iv, Serum concentration, rabbit 12, 671.83 h): 2.8 nM | Computed maintenance dose [2]: 0.0013 mg/kg | Computed loading dose [2]: 0.0075 mg/kg | Daily maintenance dose [2]: 0.0084 mg/kg | Loading dose [2]: 0.047 mg/kg | concentration at 17 wk ([3]; female, New Zealand white (INRA 1777 line), rabbit, in vivo, po): 0.16 ± 0.058 ng/mL

O=S(=O)(c1ccc(O)cc1)c1ccc(O)cc1 [BPS, bisphenol S]
CL ([1]; IV mixture dosing, NCA, n=12): 72.5 mL/min/kg | MRT ([1]; IV mixture dosing, NCA, n=12): 1.26 h | Serum concentration ([1]; rabbit 1, 0.30 h): 2080 nM | Serum concentration ([1]; rabbit 1, 4.38 h): 25 nM | Serum concentration ([1]; rabbit 1, 24.03 h): < 4 nM | Serum concentration ([1]; rabbit 2, 0.28 h): 4060 nM | Serum concentration ([1]; rabbit 2, 4.05 h): 29 nM | Serum concentration ([1]; rabbit 3, 0.35 h): 3380 nM | Serum concentration ([1]; rabbit 3, 4.05 h): 65 nM | Serum concentration ([1]; rabbit 4, 0.62 h): 1030 nM | Serum concentration ([1]; rabbit 4, 8.33 h): 22 nM | Serum concentration ([1]; rabbit 4, 72.00 h): < 4 nM | Serum concentration ([1]; rabbit 5, 0.75 h): 1230 nM | Serum concentration ([1]; rabbit 5, 8.62 h): 15 nM | Serum concentration ([1]; rabbit 5, 72.03 h): < 4 nM | Serum concentration ([1]; rabbit 6, 0.57 h): 1840 nM | Serum concentration ([1]; rabbit 6, 7.98 h): 22 nM | Serum concentration ([1]; rabbit 6, 71.97 h): < 4 nM | Serum concentration ([1]; rabbit 7, 1.13 h): 370 nM | Serum concentration ([1]; rabbit 7, 11.98 h): 8.5 nM | Serum concentration ([1]; rabbit 8, 1.12 h): 290 nM | Serum concentration ([1]; rabbit 8, 12.02 h): 6 nM | Serum concentration ([1]; rabbit 9, 1.03 h): 410 nM | Serum concentration ([1]; rabbit 9, 11.97 h): 7.4 nM | Serum concentration ([1]; rabbit 11, 2.08 h): 110 nM | Serum concentration ([1]; rabbit 12, 2.08 h): 200 nM | AUC0−inf ([1]; serum, IV mixture dosing, NCA, n=12): 2.41 µM·h | Cmax ([1]; serum, IV mixture dosing, NCA, n=12, doses in Table 2 r3, BPSG after BPS dosing): 4060 nM | Computed maintenance dose [2]: 0.122 mg/kg | Computed loading dose [2]: 0.032 mg/kg | Daily maintenance dose [2]: 0.122 mg/kg | Loading dose [2]: 0.032 mg/kg | Mean serum concentration of (unconjugated) BPS, estimated ([3]; estimated from total BPS and 7% unconjugated fraction, targeted CSS 1 ng/mL): 0.98 ng/mL
